The values below come from patent US7820624B2, “Peptide ligands” (ICH Productions Limited, priority 2003, dated 2010).

In one experiment the test system is HepG2 cells. The experiment in a line: Adenoviral transduction of HepG2 cells. Format: cell-based, human. The note with it: 10,000 particles per cell in OptiMEM; listed as peptide A. As to the method: (§1) Day 6 dendritic cells (see Example 1(v) above), or mouse bone marrow derived dendritic cells or mouse Sca1+ve stem cells, see (i) and (ii) above, were plated at 5×10^4 cells per well in a 48 well plate in 500 μl complete medium and allowed to settle for 3 hours at 37° C. Transductions were carried out in complete media, with virus being added at 100,000 viral particles/cell for 24 hours. Cells were harvested by scraping, spun down at 650 g (2000 rpm) for 5 min, resuspended in 300 μl PBS, and kept on ice before analysis. Viral transduction as determined by percentage of GFP positive cells was measured by FACS analysis. To measure percentage viability, 10 μl of 7-amino-actinomycin D (7AAD; Sigma, Poole, Dorset) was added immediately prior to analysis. Viral transduction of macrophages was carried out at 10,000 particles/cell in medium containing 2.5% FCS. […] Cells were then washed twice in PBS, trypsinised, triplicate wells pooled, spun down at 350×g for 5 min and resuspended in 300 μl PBS before analysis by flow cytometry where cell viability was to be measured, 10 μl 7AAD was added just prior to analysis.
(§2) For transduction of these other cell types, cells were seeded overnight at 5×10^4 cells per well in 24 well plates in the appropriate media. […] Where cell viability was to be measured, 10 μl 7-amino-actinomycin D (7AAD; Sigma, Poole, Dorset) was added just prior to analysis. […]

Another experiment relates to HMEC-1 cells. The experiment in a line: Adenoviral transduction of HMEC-1 cells. Format: cell-based, human. The note with it: 10,000 particles per cell in OptiMEM; listed as peptide A. As to the method:
as §1, §2

For experiment [1], the system named is day 6 immature dendritic cells. The experiment in a line: Maturation of adenovirus-transduced dendritic cells in response to LPS (marker flow cytometry). Type of experiment: cell-based, human. The note with it: LPS 50 ng/ml; virus 100,000 particles per cell. As to the method:
Day 6 immature dendritic cells were infected with retargeted Ad or Ad5 at 100,000 particles per cell in complete medium for 24 hours, with E. coli 026:B6 lipopolysaccharide (LPS) added following 3 hours incubation at a concentration of 50 ng/ml. As controls, dendritic cells were either incubated in complete medium for 24 hours or matured by the addition of LPS in complete medium for 24 hours, In all samples IL-4 and GM-CSF were present in the complete medium at 25 ng/ml and 100 ng/ml respectively. Cells were then phenotyped by staining as follows: a minimum of 5×10^4 cells in a volume of less than 2 ml medium were added to the recommended amount of antibody and incubated for 20 min on ice. 2 ml of ice-cold PBS was added before centrifugation at 300×g for 5 min at 4° C. The supernatant was flicked off and the pellet resuspended in 300 μl ice cold PBS. Cells from each sample were stained with antibodies to HLA-DR, CD40, CD80, CD83, CD86 and isotype matched control antibodies. Where cell viability was also measured, […] of 7AAD was added immediately prior to analysis. Cells were analysed by flow cytometry using a Epics XL (Beckman Coulter, High Wycombe, UK.) and the EXPO32 analysis software (Beckman Coulter).
Background: In flow cytometry, cells or beads pass a laser one at a time.

Experiment [2] has as its system human monocyte-derived primary macrophages. The experiment in a line: Adenoviral transduction of primary macrophages. Format: cell-based. As to conditions: 10,000 viral particles/cell in 2.5% serum. As to the method: Day 6 dendritic cells (see Example 1(v) above), or mouse bone marrow derived dendritic cells or mouse Sca1+ve stem cells, see (i) and (ii) above, were plated at 5×10^4 cells per well in a 48 well plate in 500 μl complete medium and allowed to settle for 3 hours at 37° C. Transductions were carried out in complete media, with virus being added at 100,000 viral particles/cell for 24 hours. Cells were harvested by scraping, spun down at 650 g (2000 rpm) for 5 min, resuspended in 300 μl PBS, and kept on ice before analysis. Viral transduction as determined by percentage of GFP positive cells was measured by FACS analysis. To measure percentage viability, 10 μl of 7-amino-actinomycin D (7AAD; Sigma, Poole, Dorset) was added immediately prior to analysis. Viral transduction of macrophages was carried out at 10,000 particles/cell in medium containing 2.5% FCS. For other cell types, cells were seeded overnight at 5×10^4 cells per well in 24-well plates in the appropriate media. Adenovirus was added in OptiMEM at 10,000 viral particles/cell, 1 ml per well in triplicate and incubated for 24 h at 37° C. Cells were then washed twice in PBS, trypsinised, triplicate wells pooled, spun down at 350×g for 5 min and resuspended in 300 μl PBS before analysis by flow cytometry where cell viability was to be measured, 10 μl 7AAD was added just prior to analysis.
10 mls of peripheral blood were diluted 1:1 with HBSS then layered on Lymphoprep (Nycomed), spun at 750 g for 30 min and purified […] were isolated from the interface. Excess Lymphoprep was removed by spinning cells down at 250 g for 10 min and any platelets present were removed by washing in HBSS twice, spinning the cells at 1200 rpm for 10 min each time. Monocytes were then isolated using MACs CD14 microbeads as described in the manufacturer's protocol. The mononuclear cells were plated into a […] flask in 10% FCS, RPMI for 1-2 hours (1 flask per 10 ml blood) before removing the supernatant and adding fresh 10% FCS, RPMI+10 ng/ml MCSF (macrophage colony stimulating factor). Half the medium was replaced with fresh 10% FCS, RPMI+MCSF (10 ng/ml) after 48 hours and the cells were used at day 6, harvesting by scraping the cells from the well.
Viral transduction was carried out at 10,000 particles/cell in medium containing 2.5% FCS. Viral transduction as determined by percentage of GFP positive cells was measured by FACS analysis. Cells were pooled from three separate transduction experiments for the calculation of results.

Experiment [3] has as its system primary mouse dendritic cells. The experiment in a line: Adenoviral transduction of mouse dendritic cells. Type of experiment: cell-based. As to conditions: bone marrow derived DCs. As to the method:
Mouse dendritic cells were prepared from whole bone marrow flushed from the marrow cavities of the femur and tibia of 5-7 week old A/J mice and cultured in Hepes buffered RPMI+Glutamax (InVitrogen, Paisley, U. K.) supplemented with 10% FCS, penicillin/streptomycin and 20 ng/ml recombinant GM-CSF. Cytokines were added to the same concentration on day 3 and the dendritic cells isolated from the floating cell fraction by MACs CD11c microbeads (Miltenyi Biotec, Bisley, U. K.) on day 6.
as §1, with “analysis.” for “analysis. To measure percentage viability, 10 μl of 7-amino-actinomycin D (7AAD; Sigma, Poole, Dorset) was added immediately prior to analysis. Viral transduction of macrophages was carried out at 10,000 particles/cell in medium containing 2.5% FCS.”

The subject of another experiment is Neuro-2A cells. The experiment in a line: Adenoviral transduction of Neuro-2A cells. The note with it: 10,000 particles per cell in OptiMEM. Type of experiment: cell-based, mouse. As to the method:
as §1, §2

In experiment [4] the test system is day 4 immature dendritic cells. The experiment in a line: Phenotyping of LID-transfected dendritic cells (HLA-DR, CD86). Type of experiment: cell-based, human. As to conditions: LID with lipofectin, peptide:DNA 7:1. As to the method: Immature day 4 dendritic cells were transfected with LID complex with peptide A at a charge ratio 7:1 to the DNA (plasmid pEGFP-N1), with lipofectin added at a weight ratio of 0.75 to the DNA for 4 hours in RPMI before incubating in complete medium with cytokines for 24 hours. As a control, dendritic cells were incubated in complete medium for 24 hours (immature Dendritic cells) Cells were then harvested by scraping and stained for the presence of maturation markers as follows: a minimum of 5×10^4 cells in a volume of less than 2 ml medium were added to the recommended amount of antibody and incubated for 20 min on ice. 2 ml of ice-cold PBS was added before centrifugation at 300×g for 5 min at 4° C. The supernatant was flicked off and the pellet resuspended in 300 μl ice cold 1% paraformaldehyde-PBS. Cells from each sample were stained with antibodies to HLA-DR, and CD86 and isotype matched control antibodies. Cells were analysed by flow cytometry using a Epics XL (Beckman Coulter, High Wycombe, UK.) and the EXPO32 analysis software (Beckman Coulter).

Consider “SHVKLNS (Synthetic peptide binding to dendritic cells) [listing 1 of 2 here]”, for which the “Transduction, % cells transduced” value with HepG2 cells was determined as 88.5%. Further, the “Transduction, % cells transduced” value in the experiment on HMEC-1 cells is 95.7%. In experiment [1], this substance displayed a CD40 positive cells of 15.6%, a CD80 positive cells of 16.5%, a CD83 positive cells of 24.6% and a CD86 positive cells of 98.4%. In addition, the HLA-DR positive cells in experiment [1] is given as 58.1%. Besides, the “Transduction, % cells transduced” value in experiment [2] (listed as A) is listed as 67.6%. Further, in experiment [2] (listed as peptide A), the “Transduction, % cells transduced” value was determined as 67.6%. The substance further showed a Transduction efficiency in experiment [3] of 71.7%. For the same substance, the “Transduction, % GFP-positive cells” value in the experiment with Neuro-2A cells is listed as 63.5%.
For “SHVKLNS (Synthetic peptide binding to dendritic cells) [listing 2 of 2 here]”, the “HLA-DR and CD86 on transfected cells” value in experiment [4] is “upregulated CD86 and HLA-DR”.
